Laboratory results: patent US12503707B2, “Methods, plants and compositions for overcoming nutrient suppression of mycorrhizal symbiosis” (Cambridge Enterprise Limited, priority 2020, dated 2025)

What was measured:
[1] = tested on: M. truncatula root epidermal cells; assay: Nuclear calcium imaging after CO/LCO treatment; assay type: cell-based, Medicago truncatula; details: lateral roots; −N−P and +N+P conditions
Procedure: For calcium analyses M. truncatula seedlings were grown on Buffered Nodulation Media (BNM) agar with 100 nM Aminoethoxyvinylglycine (AVG; Sigma-Aldrich) until lateral roots emerged (FIGS. 1A-1B). […] The lateral roots were fixed in a small chamber made on a cover glass using vacuum grease, with 500 μl of BNM buffer. The roots were then treated with COs (CO4 or CO8), LCOs (non-sulfated LCO (NS-LCO) or a LCO derived from Sinorhizobium meliloti (SmLCO)), at the concentrations indicated in FIGS. 1A-1B. Recordings were collected on an inverted epifluorescence microscope (model TE2000; Nikon). Yellow cameleon YC3.6 was excited with an 458-nm laser and imaged using emission filters 476-486 nm for CFP and 529-540 nm for YFP. The calcium images were collected every 5 seconds with 1 second exposure and analyzed using Metafluor (Molecular Devices). Calcium traces used the intensity ratio of YFP to CFP. For better visualization of calcium signals, the traces were flattened to a single axis by subtracting the values with moving average as the following formula:
[formula] Where Sf is the flattened signal, So is the original signal, and MA is the moving average of the value. For each element i, MA is calculated as:
[formula] where m is the arbitrary number of points to calculate the average, w=[m/2] and xj is the signal at point j. M. truncatula Gene Expression

[2] = tested on: M. truncatula LysM receptor-like kinase (LysM RLK) genes; assay: LysM RLK gene expression by qRT-PCR after GR24 and/or TIS108 treatment; assay type: in vivo, Medicago truncatula; details: BNM plates 4 days
Procedure: FIGS. 24A-24E show the effects of nutrient starvation and strigolactone and/or karrikin treatment on M. truncatula RLK gene expression levels. […] As indicated from left to right above the heat map, M. truncatula was grown under limiting nitrate (−N, 0 mM NO3^− and 3.75 mM PO4^−), limiting phosphate (−P, 5 mM NO3^− and 0.0075 mM PO4^−), or limiting nitrate and phosphate (−N−P, 0 mM NO3^− and 0.0075 mM PO4^−). The relative expression level of each condition is normalized to expression when plants were grown under replete nitrate and replete phosphate (+N+P, 5 mM NO3^− and 3.75 mM PO4^−). As indicated from left to right below the heatmap, expression was measured either 5, 10, or 15 days after germination (“DAG”). The color scale indicates the relative expression levels, with black representing the lowest expression and light grey representing the highest expression. FIGS. 24B-24E show expression of M. truncatula genes after seedlings were grown on BNM plates for 4 days, and then treated with either DMSO (mock), 0.1 μM synthetic strigolactone analog GR24, 1 μM strigolactone-biosynthesis inhibitor TIS108, or both (0.1 μM GR24 and 1 μM TIS108) for 24 hours, as indicated on the x-axis. […] In each of FIGS. 24B-24E gene expression was determined by RT-qPCR, relative expression levels is on the y-axis, and the asterisks indicate the relative level of statistical significance as determined by a Student's t-test.
Gene expression was measured by qRT-PCR (FIGS. 2A-2B). Plants were grown on modified BNM plates (described above) with 100 nM AVG for four days, the plants were then carefully transferred to liquid BNM with the appropriate nutrient concentrations along with COs, PGN, flg22 and SmLCO, at a final concentration of 10^−7 M COs, 10^−7 M flg22, 0.4 mg/ml PGN and 10^−8 M SmLCO. After incubation for 6 h, plant roots were harvested and frozen in liquid nitrogen. […] An aliquot of each total RNA sample was used to determine RNA concentration and purity assessed on the NanoDrop ND-1000 spectral photometer (Peglab, Erlangen, Germany). RNA integrity was analyzed on the 2100 Bioanalyzer using RNA 6000 Nano LabChip Kits (Agilent Technologies). […] Gene expression was determined by an ABI 7500 using a SYBR green PCR master mix (Bio-Rad). […] Expression data were analyzed from the average of threshold cycle (CT) value, using an M. truncatula endogenous Histone 2A (H2A) gene as reference and fold induction calculated for treatment of elicitors relative to treatment with DMSO. […]
Gene expression was measured by RNA-seq. […] M. truncatula RLK gene expression levels were measured by qRT-PCR (FIGS. 24B-24E), as described in Example 1.

[3] = tested on: R. irregularis colonization of H. vulgare; assay: Mycorrhizal colonization assay with R. irregularis; assay type: in vivo, Hordeum vulgare; details: 0.1 μM GR24 twice a week
Procedure: FIGS. 14A-14D provide the effects of treating H. vulgare plants with a strigolactone or with both a strigolactone and a CEP peptide. […] Plants were grown under high nitrate and high phosphate (5 mM NO3^− and 0.5 mM PO4^−) and cells were treated with 10^−7 M SmLCO. The top trace represents cells without any additional treatment, the middle trace represents cells that were pre-treated with 1 μM 5-deoxystrigol, and the bottom trace represents cells that were pre-treated with 1 μM 5-deoxystrigol and 1 μM CEP3. The scale bar indicates a span of 10 minutes, and the fractions indicate the number of cells that responded over the total number of cells analyzed. FIGS. 14B-14C provide the level of mycorrhizal colonization of H. vulgare when treated with the synthetic strigolactone analog GR24 under different nutrient conditions, as determined in two separate experiments. In FIG. 14B, colonization was measured 7 weeks post inoculation, and the x-axis indicates the nutrient conditions tested, and whether the plants were treated with GR24. […] In FIG. 14C, colonization was measured 6 weeks post inoculation, and the x-axis indicates the nutrient conditions tested, and whether the plants were treated with GR24. […] In FIGS. 14B-14C, the y-axis represents the percentage of roots colonized by mycorrhizal fungi, and the shading of each bar represents the fungal structure quantified. […]

[4] = then 24 hours, 0.1 μM GR24, 1 μM TIS108

In the case of `CC(=O)N[C@H]1[C@H](O[C@H]2[C@H](O)[C@@H](NC(C)=O)C(O)O[C@@H]2CO)O[C@H](CO)[C@@H](O[C@@H]2O[C@H](CO)[C@@H](O[C@@H]3O[C@H](CO)[C@@H](O)[C@H](O)[C@H]3NC(C)=O)[C@H](O)[C@H]2NC(C)=O)[C@@H]1O` (some centres unmarked) [CO4], the “nuclear symbiotic calcium oscillations (Cells spiking)” value [1] is reported as “promoted nuclear symbiotic oscillations”.
`CC(=O)N[C@H]1[C@H](O[C@H]2[C@H](O)[C@@H](NC(C)=O)[C@H](O[C@H]3[C@H](O)[C@@H](NC(C)=O)[C@H](O[C@H]4[C@H](O)[C@@H](NC(C)=O)C(O)O[C@@H]4CO)O[C@@H]3CO)O[C@@H]2CO)O[C@H](CO)[C@@H](O[C@@H]2O[C@H](CO)[C@@H](O[C@@H]3O[C@H](CO)[C@@H](O[C@@H]4O[C@H](CO)[C@@H](O[C@@H]5O[C@H](CO)[C@@H](O)[C@H](O)[C@H]5NC(C)=O)[C@H](O)[C@H]4NC(C)=O)[C@H](O)[C@H]3NC(C)=O)[C@H](O)[C@H]2NC(C)=O)[C@@H]1O` (some centres unmarked) [CO8] was tested, and the “nuclear symbiotic calcium oscillations (Cells spiking)” value [1] was “promoted nuclear symbiotic oscillations”.
In the case of `CC1=C[C@H](O/C=C2/C(=O)O[C@@H]3c4ccccc4C[C@H]23)OC1=O` [GR24], the “MtKUF1 expression compared to mock treatment” value [2, 4] is reported as “significantly increased”, the “MtLYK8 expression compared to mock treatment” value [2, 4] is reported as “significantly increased” and the “MtLYK10 expression compared to mock treatment” value [2, 4] is reported as “significantly increased”. For the same compound, the “promotion of mycorrhizal colonization” value ([3]; 7 weeks post inoculation, no inhibitory effect of high phosphate seen) was “could not be observed” and the mycorrhizal colonization ([3]; high phosphate (500 μM) and low nitrate (0.5 mM), 6 weeks post inoculation) was “promoted mycorrhizal colonization”.
In the case of `O=C(c1ccccc1)C(CCCCOc1ccccc1)n1cncn1` (centres unmarked) [TIS108], the “LysM RLK gene expression compared to mock treatment” value ([2]; then 1 μM TIS108 for 24 hours) is reported as “either the same or lower”.
